Results as given in patent US20240084354A1, “MEANS AND METHODS FOR REGULATING INTRACELLULAR TRAFFICKING OF SECRETORY OR CELL MEMBRANE-ANCHORED PROTEINS OF INTEREST” (HONING BIOSCIENCES, priority 2020, published 2024).
Entries after “also recorded” stand apart in the source; their conditions may differ.

Columns and labels:
Jurkat cells = assay: Flow cytometry of GFP fluorescence in transduced Jurkat cells; assay type: cell-based
Procedure: Transduced cells either received no treatment or were treated with 40 μM of biotin for 15 minutes, 60-75 minutes or overnight (0/N).
The RPMI medium was supplemented with 14 μg/mL of avidin to chelate the existing biotin present in the medium.
(§1) After incubation with biotin, the cells were immediately transfer on ice, to inhibit or slow down the traffic of the cargo, followed by centrifugation (300 g, 4° C., 5 minutes), washed twice in cold 1×PBS (300 g, 4° C., 5 minutes) and incubated with live/dead fixable staining (20 minutes, on ice; Thermofisher). The cells were then washed twice in cold PBS (300 g, 4° C., 5 minutes) or FACS buffer (1×PBS, 1% BSA, 0.05% sodium azide, 1 mL EDTA 0.5 M, filtered and kept at 4° C.) and, when not analyzed immediately, the cells were fixed in 3% PFA-1×PBS (10 minutes, RT) and washed twice in 1×PBS.
Transduced cells either received no treatment or were treated with 40 μM of biotin for 6 hours.
Transduction of HEK293FT and Jurkat cells were done using the same volume v/v of particles for each construct increasingly.
The expression of the cytokine was evaluated by measuring GFP using flow cytometry, three days later for HEK293FT and more than six days later for Jurkat cells. […]
For both types of cells, the expression of the cytokine was evaluated by measuring GFP using flow cytometry, 3 days later for HEK293FT and more than 6 days later for Jurkat cells. […]

[1] = test system: Primary CD8+ T or CD4/CD8+ T cells; assay: Flow cytometry of GFP fluorescence in transduced primary T cells; assay type: cell-based, human
Procedure: T cells were isolated from leukocyte reduction system chamber (LRSC) from blood of healthy donors by negative selection using the EasySep Direct Human T cell isolation kit (STEM cells) or MACSxpress LRSC Pan T Cell Isolation Kit, human (Miltenyi) according to the manufacturer's instructions.
Primary CD8^+ T or CD4/CD8^+ T cells were plated into culture plates and transduced with said lentiviral particle at a MOI between 1 and 5 for 3 days.
Primary CD8^+ T or CD4/CD8^+ T cells were plated into culture plates for Flow cytometry assay.
To prevent cytokines released due to the possible presence of biotin in TexMacs buffer, 1 μg/mL of avidin was added to chelate biotin, starting from the day of transduction and following days of cell culture. […]
as §1

HeLa cells [2] = assay: Immunofluorescence of transduced HeLa cells (GFP/Cherry staining), with or without biotin; assay type: cell-based; conditions: 40 μM biotin
Procedure: HeLa cells were plated on a cell culture plate and transduced with said lentiviral particle at a MOI between 1 and 5 for 2 days.
Transduced HeLa cells were plated on coverslip for immunofluorescence assay.
Transduced cells either received no treatment or were treated with 40 μM of biotin.
Cells for immunofluorescence assay were either treated or not with 40 μM or higher of biotin for 15 minutes, 75 minutes or 16 hours (steady-state).
Cells coated onto coverslips were washed once in 1×PBS buffer, fixed in 3% of paraformaldehyde (PFA) for 10-15 minutes at room temperature, then washed twice and alternatively incubated with 50 mM of NH4Cl-1×PBS for 5 minutes at room temperature to quench free aldehydes. The cells were then permeabilized using a solution of PBS containing 0.5% Bovine Serum Albumin (BSA) and 0.05% saponin (Saponin, Sigma-Aldrich) for 15 minutes at room temperature. The coverslips were mounted in Mowiol supplemented with DAPI (4′,6-diamidino-2-phenylindole) for DNA staining.

HeLa cells [3] = assay: Western blot (GFP revelation) of cell medium and cell extract of transduced HeLa cells; assay type: cell-based; conditions: 40 μM biotin, 60 minutes or O/N
Procedure: Cells for western blotting were treated either treated or not with 40 μM biotin or higher for 60 minutes or over-night (0/N).
After biotin treatment, the supernatant was recovered and centrifuged for removal of the detached or dead cells at 300 g, 4° C., for 5-10 minutes and kept on ice. While the cells (defined hereafter as pellet) were incubated with protein loading buffer 1×(5 mM Tris-HCl, pH 7.0, 30 mM ethylenediaminetetra acid (EDTA), pH 8.0; 0.01% bromophenol blue, 5% glycerol) for 5 minutes at room temperature, scratched and transfer to a new tube followed by denaturation at 95-100° C. for 10-20 minutes. The supernatant (from adherent or suspension cells) were incubated with StrataClean Resin (Agilent) to collect and concentrate protein present in the supernatant, for at least 2 hours at 4° C. with orbital agitation. […] Cytokines were detected using monoclonal anti-GFP (1/1000; Roche) in 5% skim milk in 0.1% Tween-20 PBS for 1 hour at room temperature or overnight (0/N) at 4° C., followed by the respective horseradish peroxidase (HRP) conjugated secondary polyclonal antibody (1/15000) in 5% skim milk in 0.1% Tween-20 PBS for 1 hour at room temperature. […]

[4] = test system: HEK blue IL-2 reporter cell line; assay: Cytokine activity of medium of transduced HeLa cells on reporter cell line HEK blue IL-2; assay type: cell-based; conditions: no biotin
Procedure: Cells were treated with 40 μM biotin for 0 minute, 15 minutes, 60 minutes, 90 minutes, 120 minutes or 4320 minutes (=72 hours).
After treatment of the cells, the cell medium (1500 μL) was collected and centrifuged (300 g, 4° C., 5-10 minutes) to remove dead cells.
The cell medium of the RUSH-transduced cells was added into a cell culture 96-well plate (flat bottom) at a dilution 1/80 to 1/100 followed by the platting of HEK-Blue cells at approximately 50 000 cells/well. On the next day (after approximately 24 hours), 20 μL of the supernatant of these cells was transferred to a new plate and 180 μL of QUANTI-Blue substrate was added and incubated at 37° C. and 5% of C02 for 1-3 hours. The absorbance was then measured at 620 nm. The response ratio of the cytokines was determined by dividing the value of absorbance of the treated cells by non-treated cells. The values were them normalized to WT cells line.

CTLL-2 NFκB cells = assay: IL-2-induced proliferation of CTLL-2 NFκB cells; assay type: cell-based; conditions: medium of transduced HeLa cells
Procedure: The relative proliferation and NFκB response measured by luminescence in CTLL2 NFκB was determined as described by Mock et al. (2020. Sci Rep. 10(1):3234). Briefly, CTLL2 NFκB were starved for about 24 hours, i.e., incubated for 24 hours without IL-2 to reduce the background due to the presence of IL-2 in the medium. After starvation, the cells (approximately 50 000 cells/well) in a cell culture 96-well plate (flat bottom) were incubated with the supernatant of the transduced cells either non-treated or treated with biotin diluted at 1/80 to a final volume of 200 μL. The cells were incubated for 72 hours at 37° C. and 5% of C02.
For CTLL-2 proliferation, CellTiter 96 Aqueous One Solution (Promega) was used according to the manufacturer's instructions. Briefly, 100 μL of the cells medium were removed and 20 μL of CellTiter 96 Aqueous One Solution (Promega) were added and incubated at least for 1 hours at 37° C. and 5% of CO2 before reading the absorbance at 490 nm. The relative proliferation or luminescence was determined by dividing the absorbance of treated cells by non-treated cells.

Row | Substance | GFP upon addition of biotin within 6 hours (flow cytometry) (Jurkat cells; 40 μM biotin, 6 hours) | Intracellular GFP expression without biotin treatment (flow cytometry) (Jurkat cells; no biotin) | GFP-expressing cells upon addition of biotin ([1]; 40 μM biotin) | Efficiency of transduction / T cells expressing the cytokine ([1]; absence of biotin) | Traffic and secretion of the cytokine upon biotin addition (immunofluorescence) (HeLa cells [2]) | Cytokine secretion in cell medium upon biotin addition (western blot) (HeLa cells [3]) | Response of the reporter cell line in the absence of biotin [4] | CTLL-2-NFκB cell proliferation after 4320 minutes of biotin (CTLL-2 NFκB cells; biotin 4320 minutes) | CTLL-2-NFκB cell proliferation, biotin for more than 60 minutes (CTLL-2 NFκB cells; biotin more than 60 minutes) | CTLL-2-NFκB cell proliferation in absence of biotin (CTLL-2 NFκB cells; no biotin)
1 | CCL5-SBP-eGFPhibit: RUSH system with CCL5 fused to SBP and to eGFP containing HiBit tag (SEQ ID NO: 604) (VSGWRLFKKIS; HiBit tag) | showed a decrease in GFP-expressing cells | showed a proper intracellular GFP expression | decrease of GFP-expressing cells | 6% |  |  |  |  |  | 
2 | SPCCL5-IL-2-SBP-eGFP: RUSH system with Interleukin-2 fused to SBP and eGFP using the signal peptide of CCL5 (SEQ ID NO: 603) (MKVSAAALAVILIATALCAPASA; Signal peptide of CCL5) |  |  |  |  | After 15 minutes with biotin treatment, the cytokine was localized in the Golgi; also recorded: at 75 minutes, a high percentage of the cytokine still remained in the Golgi; also recorded: At 4 hours, most of the cytokine had been secreted | the highest secretion was observed after O/N with biotin | induced a small response by the reporter cell line | seemed to better sustain cell activation | a significant increase in cell proliferation was observed | proliferated
